Where a SMILES comes first, the peptide text is derived from it. [ ]: non-standard residue; d: D form. The star is where a group is joined. Dolaproine = CO[C@@H]([C@@H]1CCCN1)[C@@H](C)C(=O)O; Dil = CC[C@H](C)[C@H](NC)[C@@H](CC(=O)O)OC; X1 = C[C@@H](N*)[C@@H](O)c1ccccc1; NMeV = CN[C@H](C(=O)O)C(C)C
Tests used:
[1] = test system: HCC1954 breast ductal carcinoma cells; experiment: In vitro potency, cell viability (Cell Titer Glo 2.0), HCC1954; format: cell-based; details: Homo sapiens, HCC1954, 120 h
Description: (§1) HCC1954 breast ductal carcinoma or SK-BR-3 cells (ATCC, Manassas, VA, USA) were seeded into 384-well white-walled culture plates and allowed to adhere for 2-4 hours. Cells were then treated with test articles at least in duplicate by addition of 5-fold serially diluted test articles prepared at 2× final concentration and incubated at 37° C. for 120 hours. Cell viability following treatment was determined by Cell Titer Glo 2.0 Assay (Promega, Madison, WI, USA) and normalized to non-treated controls. Dose-response relationships were analyzed using GraphPad Prism (La Jolla, CA, USA), and IC50 values were derived from non-linear regression analyses using a 4-parameter logistic equation.

SK-BR-3 cells = experiment: In vitro potency, cell viability (Cell Titer Glo 2.0), SK-BR-3; format: cell-based; details: Homo sapiens, SK-BR-3, 120 h
Description: as §1

Work on `CC[C@H](C)[C@@H]([C@@H](CC(=O)N1CCC[C@H]1[C@H](OC)[C@@H](C)C(=O)N[C@H](C)[C@@H](O)c1ccccc1)OC)N(C)C(=O)[C@@H](NC(=O)[C@@H](NC)C(C)C)C(C)C` [MMAE, (S)-N-((3R,4S,5S)-1-((S)-2-((1R,2R)-3-(((1S,2R)-1-hydroxy-1-phenylpropan-2-yl)amino)-1-methoxy-2-methyl-3-oxopropyl)pyrrolidin-1-yl)-3-methoxy-5-methyl-1-oxoheptan-4-yl)-N,3-dimethyl-2-((S)-3-methyl-2-(methylamino)butanamido)butanamide] (H-[NMeV]V[Dil][Dolaproine]-X1) yielded an IC50 [1] of 210 pM and an IC50 (SK-BR-3 cells) of 127 pM.
